Results as given in patent US7022691B2, “Inhibitors of serine and metallo-β-lactamases” (priority 2002, dated 2006).
Structures can show the parent of a compound that is named as a salt. Where two headings read alike, the source gives them in different places.

Experiments:
[1] = molecular target: BC1 metallo-β-lactamase (class B) (Bacillus cereus, UniProt P04190); experiment: biochemical
Description: (§1) Representative compounds of the invention were evaluated as inhibitors of two serine β-lactamases: Enterobacter cloacae P99 (class C), TEM-1 (class A), as well as two class B enzymes: the L1 metallo-β-lactamse derived from Stenotrophomonas maltophilia) and the metallo-β-lactamase derived from the Bacillus cereus microorganism. The IC50 value of each compound was determined as follows. Assay method involves 4 min incubation of a solution of inhibitor and enzyme (0.1 to 1 μM in enzyme), followed by transfer of an aliquot into a dilute solution of the substrate nitrocefin. Hydrolysis is monitored spectrophotometrically at 480 nm for 1 min. The rate is constant throughout this period. Error is ±10%, based on multiple experiments.

class B β-lactamases = experiment: Inhibition of class B β-lactamases, summary in words; format: biochemical; conditions: summary of Table 1 in words
Description: as §1

[2] = molecular target: L1 metallo-β-lactamase (class B) (Stenotrophomonas maltophilia, UniProt P52700); experiment: Inhibition of L1 metallo-β-lactamase (nitrocefin hydrolysis); format: biochemical
Description: as §1

[3] = molecular target: Enterobacter cloacae P99 (class C) serine β-lactamase (Enterobacter cloacae, UniProt P05364); experiment: biochemical
Description: as §1, with “min.” for “min. The rate is constant throughout this period. Error is ±10%, based on multiple experiments.”

[4] = molecular target: TEM-1 (class A) serine β-lactamase (Escherichia coli, UniProt P62593); experiment: Inhibition of TEM-1 β-lactamase (nitrocefin hydrolysis); format: biochemical; conditions: 4 min incubation of inhibitor and enzyme (0.1 to 1 μM), substrate nitrocefin, 480 nm; error ±10%
Description: as §1, with “min.” for “min. The rate is constant throughout this period. Error is ±10%, based on multiple experiments.”

[5] = system: serine and metallo-β-lactamases; experiment: Inhibition of serine and metallo-β-lactamases, summary in words; format: biochemical; conditions: summary of Table 1 in words
Description: as §1, with “min.” for “min. The rate is constant throughout this period. Error is ±10%, based on multiple experiments.”

[6] = 4 min incubation of inhibitor and enzyme (0.1 to 1 μM), substrate nitrocefin, 480 nm, error ±10%, read-out: Inhibition IC50, P99 (Class C) (Serine)
[7] = read-out: Inhibition IC50, BC1 (Class B) (Metallo), 4 min incubation of inhibitor and enzyme (0.1 to 1 μM), substrate nitrocefin, 480 nm, error ±10%
[8] = 4 min incubation of inhibitor and enzyme (0.1 to 1 μM), substrate nitrocefin, 480 nm, error ±10%, read-out: Inhibition IC50, L1 (Class B) (Metallo)
[9] = Inhibition IC50, P99 (Class C) (Serine), 4 min incubation of inhibitor and enzyme (0.1 to 1 μM), substrate nitrocefin, 480 nm, error ±10%

Sequence of L1 metallo-β-lactamase (class B) (P52700 34-290): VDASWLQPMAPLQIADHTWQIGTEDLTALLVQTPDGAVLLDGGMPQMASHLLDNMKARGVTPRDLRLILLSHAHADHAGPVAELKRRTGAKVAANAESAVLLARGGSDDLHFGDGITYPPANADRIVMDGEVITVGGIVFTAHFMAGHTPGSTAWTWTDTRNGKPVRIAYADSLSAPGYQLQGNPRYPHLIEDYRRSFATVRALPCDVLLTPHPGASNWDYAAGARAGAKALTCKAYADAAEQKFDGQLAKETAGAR
Sequence of TEM-1 (class A) serine β-lactamase (P62593 24-286 limits assumed): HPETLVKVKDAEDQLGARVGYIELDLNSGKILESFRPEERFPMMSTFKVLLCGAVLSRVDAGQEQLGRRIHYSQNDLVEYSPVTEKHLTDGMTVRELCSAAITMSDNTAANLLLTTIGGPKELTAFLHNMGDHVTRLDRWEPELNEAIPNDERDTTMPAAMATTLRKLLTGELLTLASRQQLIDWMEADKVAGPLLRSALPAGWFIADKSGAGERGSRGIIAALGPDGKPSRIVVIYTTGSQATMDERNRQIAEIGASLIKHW
Sequence of Enterobacter cloacae P99 (class C) serine β-lactamase (P05364 21-381): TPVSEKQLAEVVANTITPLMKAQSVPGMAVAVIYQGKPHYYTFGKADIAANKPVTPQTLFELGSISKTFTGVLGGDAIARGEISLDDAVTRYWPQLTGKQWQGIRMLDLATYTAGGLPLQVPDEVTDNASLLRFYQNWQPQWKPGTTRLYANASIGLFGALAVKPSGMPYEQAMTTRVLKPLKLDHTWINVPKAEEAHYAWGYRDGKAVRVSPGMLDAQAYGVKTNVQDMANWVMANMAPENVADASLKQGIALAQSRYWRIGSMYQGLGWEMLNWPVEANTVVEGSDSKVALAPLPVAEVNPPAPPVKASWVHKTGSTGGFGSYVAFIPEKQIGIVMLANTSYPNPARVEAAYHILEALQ
Sequence of BC1 metallo-β-lactamase (class B) (P04190 31-257): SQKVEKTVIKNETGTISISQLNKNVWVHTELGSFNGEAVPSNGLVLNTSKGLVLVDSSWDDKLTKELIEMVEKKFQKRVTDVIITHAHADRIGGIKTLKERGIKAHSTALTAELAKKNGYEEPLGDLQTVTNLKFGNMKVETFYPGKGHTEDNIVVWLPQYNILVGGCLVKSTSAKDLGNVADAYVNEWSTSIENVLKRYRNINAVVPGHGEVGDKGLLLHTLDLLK

For `CC1(C)[C@H](C(=O)O)N2C(=O)C(CO)C2S1(=O)=O` (single isomer, unassigned) [Compound 15, Sodium Salt of 6β-(hydroxymethyl)penicillinate-1,1-dioxide, reference compound], the IC50 [1] was > 2000 µM, the “ability to inhibit the class B β-lactamases” value (class B β-lactamases) was “none of the latter, previously known, 6-(hydroxymethyl)penicillinates possess such ability” and the IC50 [2] was > 2000 µM. The IC50 [3, 6] was 3.9 µM.

With `CC1(C)S[C@@H]2C(CO)C(=O)N2[C@H]1C(=O)O` (single isomer, unassigned) [Compound 16, Sodium Salt of 6β-(hydroxymethyl)penicillinate, reference compound] the IC50 [4] was 752 µM, the IC50 [1, 7] was > 2000 µM and the “ability to inhibit the class B β-lactamases” value (class B β-lactamases) was “none of the latter, previously known, 6-(hydroxymethyl)penicillinates possess such ability”. The IC50 [2, 8] was > 2000 µM and the IC50 [3, 9] was 409 µM.

For `CC1(C)[C@H](C(=O)O)N2C(=O)C(CO)C2S1(=O)=O` (single isomer, unassigned) [Compound 27, Sodium Salt of 6α-(hydroxymethyl)penicillinate-1,1-dioxide, reference compound], the IC50 [1, 7] was > 2000 µM, the “ability to inhibit the class B β-lactamases” value (class B β-lactamases) was “none of the latter, previously known, 6-(hydroxymethyl)penicillinates possess such ability” and the IC50 ([2]; read-out: Inhibition IC50, L1 (Class B) (Metallo), 4 min incubation of inhibitor and enzyme (0.1 to 1 μM), substrate nitrocefin, 480 nm, error ±10%) was > 2000 µM. The IC50 [3, 6] was 10 µM.

For `CC1(C)S[C@@H]2C(CO)C(=O)N2[C@H]1C(=O)O` (single isomer, unassigned) [Compound 28, Sodium Salt of 6α-(hydroxymethyl)penicillinate, reference compound], the IC50 [4] was 275 µM, the IC50 [1] was > 2000 µM and the “ability to inhibit the class B β-lactamases” value (class B β-lactamases) was “none of the latter, previously known, 6-(hydroxymethyl)penicillinates possess such ability”. The IC50 [2] was > 2000 µM and the IC50 [3, 9] was 96.2 µM.

`CC1(C)S[C@@H]2C(CS)C(=O)N2[C@H]1C(=O)[O-].[Na+]` (stereo partly drawn) [Compound 9, Sodium Salt of 6β-(mercaptomethyl)penicillanic acid] was tested, and the IC50 [4] was 601 µM, the IC50 [1] was 12.3 µM and the “ability to inhibit the class B β-lactamases” value (class B β-lactamases) was “possess the ability to inhibit the class B β-lactamases”. For the same compound, the IC50 [2, 8] was 72.2 µM and the IC50 [3, 6] was 0.1 µM.

With `CC1(C)[C@H](C(=O)[O-])N2C(=O)[C@@H](CS)[C@H]2S1(=O)=O.[Na+]` [Compound 13, Sodium Salt of 6β-(mercaptomethyl)penicallin acid 1,1-dioxide] the IC50 [4] was 6.8 µM, the “broad spectrum inhibitory activity” value [5] was “excellent broad spectrum inhibitory activity” and the IC50 [1] was 64 µM. The “ability to inhibit the class B β-lactamases” value (class B β-lactamases) was “possess the ability to inhibit the class B β-lactamases”, the IC50 [2, 8] was 0.13 µM and the IC50 [3, 9] was 10.5 µM.

For `CC1(C)S[C@@H]2[C@@H](CS)C(=O)N2[C@H]1C(=O)[O-].[Na+]` [Compound 21, Sodium Salt of 6α-(mercaptomethyl)penicillinate], the IC50 [4] was 648 µM, the IC50 [1] was 7.6 µM and the “ability to inhibit the class B β-lactamases” value (class B β-lactamases) was “possess the ability to inhibit the class B β-lactamases”. For the same compound, the IC50 [2, 8] was 81.4 µM and the IC50 [3, 6] was 3.75 µM.

For `CC1(C)[C@H](C(=O)[O-])N2C(=O)[C@H](CS)[C@H]2S1(=O)=O.[Na+]` [Compound 25, Sodium Salt of 6α-(mercaptomethyl)penicallin acid 1,1-dioxide], the IC50 [4] was 51.7 µM, the IC50 [1] was 770 µM and the “ability to inhibit the class B β-lactamases” value (class B β-lactamases) was “possess the ability to inhibit the class B β-lactamases”. The IC50 [2, 8] was 0.82 µM and the IC50 [3] was 7.5 µM.

For `C[C@]1(Cn2ccnn2)[C@H](C(=O)O)N2C(=O)C[C@H]2S1(=O)=O` [Tazobactam], the IC50 [1] was > 2000 µM and the IC50 [2, 8] was > 2000 µM.
